Laboratory results as given in patent publication US20170166598A1, “HETEROARYL COMPOUNDS FOR KINASE INHIBITION” (ARIAD PHARMACEUTICALS, INC., priority 2014, published 2017).

Columns and labels:
Assay type in all cases: cell-based
[1] = molecular target: T1, human EGFR E746-A750 deletion and T790M Mutation (Homo sapiens, UniProt P00533, DEL746-750/T790M); experiment: Ba/F3-EGFR-Del/T790M cell anti-proliferative assay (CellTiter 96 MTS, 72 h); settings: Ba/F3-EGFR-Del/T790M cells
T1 construct: expressed in transfected cells; host or cells: Ba/F3 (murine pro-B) cells transduced with lentivirus from pLVX-IRES puro
In short: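 Compound exposure: 72 h, 37 °C, 4-fold series topping at 10,000 nM. Target cells are Ba/F3 transduced with EGFR exon 19 deletion plus T790M, selected by puromycin and IL-3 withdrawal. Viable cell number inferred from MTS metabolic conversion, A490 read 2 h after reagent addition.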

[2] = molecular target: T2, Her2 exon 20 YVMA insertion (A775_G776ins YVMA) (Homo sapiens, UniProt P04626, INS775YVMA); experiment: Ba/F3-Her2 Exon20 YVMA cell anti-proliferative assay (CellTiter 96 MTS, 72 h); settings: Ba/F3-Her2 Exon20 YVMA cells
T2 construct: expressed in transfected cells; host or cells: Ba/F3 (murine pro-B) cells transduced with lentivirus from pLVX-IRES puro
In short: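 Anti-proliferation: compound series (top 10,000 nM, 4-fold steps) was applied to Ba/F3-Her2 Exon20 YVMA cells grown without IL-3 for 72 h. Viability was read colorimetrically (CellTiter 96 Aqueous One, A490, 2 h reagent incubation).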

[3] = molecular target: T3, human EGFR exon 20 insertion ASV (V769_D770insASV) (Homo sapiens, UniProt P00533, INS769ASV); experiment: Ba/F3-EGFR-Exon20-ASV cell anti-proliferative assay (CellTiter 96 MTS, 72 h); settings: Ba/F3-EGFR-Exon20-ASV cells
T3 construct: expressed in transfected cells; host or cells: Ba/F3 (murine pro-B) cells transduced with lentivirus from pLVX-IRES puro
In short: (§1)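 Viable-cell readout used absorbance at 490 nm of MTS-derived formazan, 2 h after reagent addition, following 72 h compound treatment at 37 °C, 5% CO2. Cells: puromycin-selected, IL-3-depleted Ba/F3 expressing EGFR exon 20 ASV or NPG; dosing 4-fold series from 10,000 nM.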

[4] = molecular target: T4, human EGFR exon 20 insertion NPG (H773_V774insNPG) (Homo sapiens, UniProt P00533, INS772GNP); experiment: Ba/F3-EGFR-Exon20-NPG cell anti-proliferative assay (CellTiter 96 MTS, 72 h); settings: Ba/F3-EGFR-Exon20-NPG cells
T4 construct: expressed in transfected cells; host or cells: Ba/F3 (murine pro-B) cells transduced with lentivirus from pLVX-IRES puro
In short: as §1

T2 sequence (P04626 with tags, fused parts or gaps INS775YVMA): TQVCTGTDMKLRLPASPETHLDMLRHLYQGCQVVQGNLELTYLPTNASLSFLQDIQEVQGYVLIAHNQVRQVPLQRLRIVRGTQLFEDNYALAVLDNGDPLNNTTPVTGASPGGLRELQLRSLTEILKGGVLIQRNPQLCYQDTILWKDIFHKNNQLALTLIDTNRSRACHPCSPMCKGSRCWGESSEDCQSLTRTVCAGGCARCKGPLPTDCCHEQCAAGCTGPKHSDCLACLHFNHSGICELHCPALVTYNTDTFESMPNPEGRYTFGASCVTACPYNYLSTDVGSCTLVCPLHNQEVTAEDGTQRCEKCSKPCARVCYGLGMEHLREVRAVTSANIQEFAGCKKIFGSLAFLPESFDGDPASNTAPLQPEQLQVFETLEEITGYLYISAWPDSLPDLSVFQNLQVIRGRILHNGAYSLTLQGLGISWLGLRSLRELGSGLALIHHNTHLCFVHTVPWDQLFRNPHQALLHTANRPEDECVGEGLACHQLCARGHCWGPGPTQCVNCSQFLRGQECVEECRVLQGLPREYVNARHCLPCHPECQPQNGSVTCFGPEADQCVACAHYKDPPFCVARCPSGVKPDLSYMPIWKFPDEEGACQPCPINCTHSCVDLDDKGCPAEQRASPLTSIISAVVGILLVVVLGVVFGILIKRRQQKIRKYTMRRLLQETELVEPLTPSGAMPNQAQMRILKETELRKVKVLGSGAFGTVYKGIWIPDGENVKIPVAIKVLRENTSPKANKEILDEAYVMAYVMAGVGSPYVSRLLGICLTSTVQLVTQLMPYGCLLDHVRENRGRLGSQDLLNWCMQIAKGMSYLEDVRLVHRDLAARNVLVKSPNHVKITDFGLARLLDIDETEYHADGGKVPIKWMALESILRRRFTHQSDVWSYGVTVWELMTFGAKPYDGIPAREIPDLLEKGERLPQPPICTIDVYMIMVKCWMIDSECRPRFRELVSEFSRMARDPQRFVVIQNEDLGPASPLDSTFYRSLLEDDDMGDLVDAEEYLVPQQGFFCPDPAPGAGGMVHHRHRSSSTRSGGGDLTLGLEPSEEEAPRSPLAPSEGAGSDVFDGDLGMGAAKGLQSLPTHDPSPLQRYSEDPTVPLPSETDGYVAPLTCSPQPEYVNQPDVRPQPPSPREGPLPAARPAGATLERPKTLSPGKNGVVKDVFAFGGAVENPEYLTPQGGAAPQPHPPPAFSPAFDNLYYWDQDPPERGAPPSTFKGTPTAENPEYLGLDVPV
T3 sequence (P00533 with tags, fused parts or gaps INS769ASV): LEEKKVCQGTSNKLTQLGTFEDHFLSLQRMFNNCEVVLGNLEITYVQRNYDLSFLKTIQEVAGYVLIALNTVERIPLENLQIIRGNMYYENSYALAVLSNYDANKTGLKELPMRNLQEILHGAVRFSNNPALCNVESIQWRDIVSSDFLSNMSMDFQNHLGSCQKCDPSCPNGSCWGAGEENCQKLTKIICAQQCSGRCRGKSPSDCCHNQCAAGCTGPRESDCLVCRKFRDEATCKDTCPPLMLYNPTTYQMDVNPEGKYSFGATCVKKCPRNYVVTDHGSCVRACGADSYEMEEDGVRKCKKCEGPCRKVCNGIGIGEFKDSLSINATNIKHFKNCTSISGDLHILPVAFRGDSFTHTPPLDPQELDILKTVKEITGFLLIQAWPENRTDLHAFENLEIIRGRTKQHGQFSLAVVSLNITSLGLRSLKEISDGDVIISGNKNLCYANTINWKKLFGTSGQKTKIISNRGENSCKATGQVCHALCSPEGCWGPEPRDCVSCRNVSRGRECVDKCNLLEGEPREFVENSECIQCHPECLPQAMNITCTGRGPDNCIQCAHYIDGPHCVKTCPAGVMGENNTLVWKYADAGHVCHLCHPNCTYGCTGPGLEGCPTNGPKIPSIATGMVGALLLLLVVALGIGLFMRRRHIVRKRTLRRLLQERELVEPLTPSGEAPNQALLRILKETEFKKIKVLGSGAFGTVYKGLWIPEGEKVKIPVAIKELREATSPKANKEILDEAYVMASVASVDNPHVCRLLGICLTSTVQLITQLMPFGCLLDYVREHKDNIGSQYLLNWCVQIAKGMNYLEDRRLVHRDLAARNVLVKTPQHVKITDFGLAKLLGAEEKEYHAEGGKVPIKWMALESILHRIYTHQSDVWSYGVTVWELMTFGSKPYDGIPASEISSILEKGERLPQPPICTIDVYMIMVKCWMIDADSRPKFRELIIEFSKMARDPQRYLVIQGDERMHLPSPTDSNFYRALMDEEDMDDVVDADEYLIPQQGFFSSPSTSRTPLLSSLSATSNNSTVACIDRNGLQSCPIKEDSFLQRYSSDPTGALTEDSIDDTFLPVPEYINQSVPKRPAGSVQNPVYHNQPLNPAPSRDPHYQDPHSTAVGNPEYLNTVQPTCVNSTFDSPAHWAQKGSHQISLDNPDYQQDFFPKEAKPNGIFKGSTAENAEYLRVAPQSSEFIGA
T1 sequence (P00533 with tags, fused parts or gaps DEL746-750/T790M): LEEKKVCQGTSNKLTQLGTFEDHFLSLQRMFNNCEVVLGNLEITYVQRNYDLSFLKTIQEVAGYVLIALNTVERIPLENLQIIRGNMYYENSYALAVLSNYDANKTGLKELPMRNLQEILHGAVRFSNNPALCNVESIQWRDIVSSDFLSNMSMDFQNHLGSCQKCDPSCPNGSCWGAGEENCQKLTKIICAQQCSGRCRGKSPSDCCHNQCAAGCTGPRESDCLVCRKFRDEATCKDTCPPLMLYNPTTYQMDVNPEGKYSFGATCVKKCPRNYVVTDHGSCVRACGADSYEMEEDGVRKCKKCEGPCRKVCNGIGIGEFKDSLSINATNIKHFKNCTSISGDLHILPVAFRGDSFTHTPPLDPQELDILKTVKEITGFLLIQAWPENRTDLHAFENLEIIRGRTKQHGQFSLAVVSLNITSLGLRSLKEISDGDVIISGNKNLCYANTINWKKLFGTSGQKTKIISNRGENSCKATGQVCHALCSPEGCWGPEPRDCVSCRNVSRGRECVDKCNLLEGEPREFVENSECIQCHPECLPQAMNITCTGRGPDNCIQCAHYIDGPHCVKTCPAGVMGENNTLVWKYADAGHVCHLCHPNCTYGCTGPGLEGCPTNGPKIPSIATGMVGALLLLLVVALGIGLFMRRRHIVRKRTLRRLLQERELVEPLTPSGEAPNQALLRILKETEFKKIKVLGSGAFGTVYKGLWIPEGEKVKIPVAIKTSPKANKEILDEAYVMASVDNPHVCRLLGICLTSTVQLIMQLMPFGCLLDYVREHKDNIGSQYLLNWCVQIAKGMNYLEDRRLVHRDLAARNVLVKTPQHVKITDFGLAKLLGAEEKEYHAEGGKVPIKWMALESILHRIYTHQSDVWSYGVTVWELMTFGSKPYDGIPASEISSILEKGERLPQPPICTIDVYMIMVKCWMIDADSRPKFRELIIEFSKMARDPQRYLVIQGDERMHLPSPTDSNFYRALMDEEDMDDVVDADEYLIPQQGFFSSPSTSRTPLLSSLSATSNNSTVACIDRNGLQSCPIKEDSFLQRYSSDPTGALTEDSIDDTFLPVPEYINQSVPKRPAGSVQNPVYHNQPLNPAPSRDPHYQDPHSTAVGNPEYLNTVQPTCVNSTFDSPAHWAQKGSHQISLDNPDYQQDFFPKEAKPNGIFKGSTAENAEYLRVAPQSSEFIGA
T4 sequence (P00533 with tags, fused parts or gaps INS772GNP): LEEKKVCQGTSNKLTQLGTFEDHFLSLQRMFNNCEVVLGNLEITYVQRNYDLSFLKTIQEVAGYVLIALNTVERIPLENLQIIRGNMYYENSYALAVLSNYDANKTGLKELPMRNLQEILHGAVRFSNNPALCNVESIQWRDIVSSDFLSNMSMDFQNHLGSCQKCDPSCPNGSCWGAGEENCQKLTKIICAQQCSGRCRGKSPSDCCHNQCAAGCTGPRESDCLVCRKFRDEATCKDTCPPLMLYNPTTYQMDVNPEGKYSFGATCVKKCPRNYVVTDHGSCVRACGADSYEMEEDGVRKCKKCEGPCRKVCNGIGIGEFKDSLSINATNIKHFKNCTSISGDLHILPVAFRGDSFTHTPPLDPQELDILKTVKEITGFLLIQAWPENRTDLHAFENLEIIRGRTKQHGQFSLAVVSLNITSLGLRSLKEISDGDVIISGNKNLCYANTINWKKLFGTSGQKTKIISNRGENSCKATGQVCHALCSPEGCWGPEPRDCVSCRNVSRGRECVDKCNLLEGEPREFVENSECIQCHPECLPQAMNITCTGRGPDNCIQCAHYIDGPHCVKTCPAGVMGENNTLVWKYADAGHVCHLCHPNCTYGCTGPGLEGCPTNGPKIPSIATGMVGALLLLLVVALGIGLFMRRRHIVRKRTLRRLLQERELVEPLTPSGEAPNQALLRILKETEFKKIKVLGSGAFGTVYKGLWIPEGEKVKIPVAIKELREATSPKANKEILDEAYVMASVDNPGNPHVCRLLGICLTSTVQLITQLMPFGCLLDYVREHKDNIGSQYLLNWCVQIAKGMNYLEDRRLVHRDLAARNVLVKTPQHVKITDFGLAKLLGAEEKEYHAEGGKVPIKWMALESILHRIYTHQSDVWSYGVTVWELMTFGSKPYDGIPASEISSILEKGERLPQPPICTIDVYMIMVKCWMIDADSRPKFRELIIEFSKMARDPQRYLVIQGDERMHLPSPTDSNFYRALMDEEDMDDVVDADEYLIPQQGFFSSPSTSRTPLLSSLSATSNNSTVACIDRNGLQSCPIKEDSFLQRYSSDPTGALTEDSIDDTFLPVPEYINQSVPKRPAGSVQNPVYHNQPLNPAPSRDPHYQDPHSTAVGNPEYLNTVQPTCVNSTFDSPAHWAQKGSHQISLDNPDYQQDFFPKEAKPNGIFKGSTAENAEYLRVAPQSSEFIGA

Row | Compound | IC50 [2] | IC50 [3] | IC50 [4] | EGFR exon 19 deletion and exon 20 T790M mutation IC50 [1]
1 | C=CC(=O)Nc1cc(Nc2nccc(-c3c(N4CC[C@@H](O)C4)n4c5c(cccc35)CCC4)n2)c(OC)cc1N(C)CCN(C)C [Example 74, (R)-N-(2-((2-(dimethylamino)ethyl)-(methyl)amino)-5-((4-(2-(3-hydroxypyrrolidin-1-yl)-5,6-dihydro-4H-pyrrolo[3,2,1-ij]quinolin-1-yl)pyrimidin-2-yl)amino)-4-methoxyphenyl)-acrylamide] | 100 to 500 nM | < 100 nM | < 100 nM | A (IC50 value for the indicated mutant below about 100 nM)
2 | C=CC(=O)Nc1cc(Nc2nccc(-c3c(N4CC[C@H](O)C4)n4c5c(cccc35)CCC4)n2)c(OC)cc1N(C)CCN(C)C [Example 75] | < 100 nM | < 100 nM | < 100 nM | A (IC50 value for the indicated mutant below about 100 nM)
3 | COc1cc(F)c(NC(=O)/C=C/CN(C)C)cc1Nc1ncc(Cl)c(-c2cn3c4c(cccc24)OCC3)n1 [Example 82, (E)-N-(5-((5-chloro-4-(2,3-dihydro-[1,4]oxazino[2,3,4-hi]indol-6-yl)pyrimidin-2-yl)amino)-2-fluoro-4-methoxyphenyl)-4-(dimethylamino)but-2-enamide] | > 1000 nM | 500 to 1000 nM | 100 to 500 nM | A (IC50 value for the indicated mutant below about 100 nM)
4 | C=CC(=O)Nc1cc(Nc2ncc(C(CC)OC)c(-c3cn4c5c(cccc35)CCC4)n2)c(OC)cc1N(C)CCN(C)C (stereo not drawn) [Example 87] | 100 to 500 nM | 100 to 500 nM | < 100 nM | A (IC50 value for the indicated mutant below about 100 nM)
5 | C=CC(=O)Nc1cc(Nc2ncc(C(=O)CC)c(-c3cn4c5c(cccc35)CCC4)n2)c(OC)cc1N(C)CCN(C)C [Example 88] | < 100 nM | < 100 nM | < 100 nM | A (IC50 value for the indicated mutant below about 100 nM)
6 | C=CC(=O)Nc1cc(Nc2ncc(C(=O)OC)c(-c3cn4c5c(cccc35)CCC4)n2)c(OC)cc1N(C)CC1CCCN1C (stereo not drawn) [Example 89] | < 100 nM | < 100 nM | < 100 nM | A (IC50 value for the indicated mutant below about 100 nM)
7 | C=CC(=O)Nc1cc(Nc2nccc(-c3c(N4CCC(OC)C4)n4c5c(cccc35)CCC4)n2)c(OC)cc1N(C)CCN(C)C (stereo not drawn) [Example 90] | 100 to 500 nM | 100 to 500 nM | < 100 nM | A (IC50 value for the indicated mutant below about 100 nM)
8 | C=CC(=O)Nc1cc(Nc2ncc(NC(=O)CC)c(-c3cn4c5c(cccc35)CCC4)n2)c(OC)cc1N(C)CCN(C)C [Example 91] | 100 to 500 nM | < 100 nM | < 100 nM | A (IC50 value for the indicated mutant below about 100 nM)
9 | C=CC(=O)Nc1cc(Nc2nccc(-c3c(N4CCC(F)C4)n4c5c(cccc35)CCC4)n2)c(OC)cc1N(C)CCN(C)C (stereo not drawn) [Example 92] | 100 to 500 nM | < 100 nM | < 100 nM | A (IC50 value for the indicated mutant below about 100 nM)
10 | C=CC(=O)Nc1cc(Nc2nccc(-c3c(N4CCCC4)n4c5c(cccc35)CCC4)n2)c(OC)cc1N(C)CCN(C)C [Example 93] | 100 to 500 nM | < 100 nM | < 100 nM | A (IC50 value for the indicated mutant below about 100 nM)
11 | C=CC(=O)Nc1cc(Nc2nccc(-c3c(N4CCN(C)C(=O)C4)n4c5c(cccc35)CCC4)n2)c(OC)cc1N(C)CCN(C)C [Example 94] | > 1000 nM | 100 to 500 nM | 100 to 500 nM | C (IC50 value for the indicated mutant between greater than about 500 to about 1 μM)
12 | C=CC(=O)Nc1cc(Nc2ncc(OCC(F)F)c(-c3cn4c5c(cccc35)CCC4)n2)c(OC)cc1N(C)CCN(C)C [Example 95] | 100 to 500 nM | < 100 nM | < 100 nM | A (IC50 value for the indicated mutant below about 100 nM)
13 | C=CC(=O)Nc1cc(Nc2ncc(C(=O)OC(C)C)c(-c3cn4c5c(cccc35)CCC4)n2)c(OC)cc1N(C)CCN(C)C [Example 103] | < 100 nM | < 100 nM | < 100 nM | A (IC50 value for the indicated mutant below about 100 nM)
14 | C=CC(=O)Nc1cc(Nc2ncc(OCCOC)c(-c3cn4c5c(cccc35)CCC4)n2)c(OC)cc1N(C)CCN(C)C [Example 104] | 100 to 500 nM | < 100 nM | < 100 nM | A (IC50 value for the indicated mutant below about 100 nM)

More lines, main results first:

Row | IC50 [2] | IC50 [3] | IC50 [4] | Compound | EGFR exon 19 deletion and exon 20 T790M mutation IC50 [1]
15 | < 100 nM | < 100 nM | < 100 nM | C=CC(=O)Nc1cc(Nc2ncc(-c3cn[nH]c3)c(-c3cn4c5c(cccc35)CCC4)n2)c(OC)cc1N(C)CCN(C)C [Example 85, N-(5-((4-(5,6-dihydro-4H-pyrrolo[3,2,1-ij]quinolin-1-yl)-5-(1H-pyrazol-4-yl)pyrimidin-2-yl)amino)-2-((2-(dimethylamino)ethyl)(methyl)amino)-4-methoxyphenyl)acrylamide] | A (IC50 value for the indicated mutant below about 100 nM)
16 | < 100 nM | < 100 nM | < 100 nM | C=CC(=O)Nc1cc(Nc2ncc(-c3nc(C)no3)c(-c3cn4c5c(cccc35)CCC4)n2)c(OC)cc1N(C)CCN(C)C [Example 86] | A (IC50 value for the indicated mutant below about 100 nM)
17 | 100 to 500 nM | < 100 nM | < 100 nM | C=CC(=O)Nc1cc(Nc2ncc(-c3nccn3C)c(-c3cn4c5c(cccc35)CCC4)n2)c(OC)cc1N(C)CCN(C)C [Example 98] | A (IC50 value for the indicated mutant below about 100 nM)
18 | < 100 nM | < 100 nM | < 100 nM | C=CC(=O)Nc1cc(Nc2ncc(-c3cnn(CC)c3)c(-c3cn4c5c(cccc35)CCC4)n2)c(OC)cc1N(C)CCN(C)C [Example 99] | A (IC50 value for the indicated mutant below about 100 nM)
19 | < 100 nM | < 100 nM | < 100 nM | C=CC(=O)Nc1cc(Nc2ncc(-c3cn(C)nc3C)c(-c3cn4c5c(cccc35)CCC4)n2)c(OC)cc1N(C)CCN(C)C [Example 100] | A (IC50 value for the indicated mutant below about 100 nM)
20 | < 100 nM | < 100 nM | < 100 nM | C=CC(=O)Nc1cc(Nc2ncc(-c3cc(C)nn3C)c(-c3cn4c5c(cccc35)CCC4)n2)c(OC)cc1N(C)CCN(C)C [Example 101] | A (IC50 value for the indicated mutant below about 100 nM)
21 | < 100 nM | < 100 nM | < 100 nM | C=CC(=O)Nc1cc(Nc2ncc(-c3cnn(C)c3C)c(-c3cn4c5c(cccc35)CCC4)n2)c(OC)cc1N(C)CCN(C)C [Example 102] | A (IC50 value for the indicated mutant below about 100 nM)
